From publication PMC8187479, “Sugar phosphate activation of the stress sensor eIF2B” (Nature Communications, 2021)

molecular target: T1, eIF2Bα (Homo sapiens, UniProt Q14232); assay: MIDAS (mass spectrometry integrated with equilibrium dialysis) metabolite binding screen; settings: MIDAS metabolite binding screen with eIF2Bα; sheet "eIF2Ba"
T1 construct: made in house; host or cells: E. coli BL21(DE3)
T1 sequence (Q14232 1-305): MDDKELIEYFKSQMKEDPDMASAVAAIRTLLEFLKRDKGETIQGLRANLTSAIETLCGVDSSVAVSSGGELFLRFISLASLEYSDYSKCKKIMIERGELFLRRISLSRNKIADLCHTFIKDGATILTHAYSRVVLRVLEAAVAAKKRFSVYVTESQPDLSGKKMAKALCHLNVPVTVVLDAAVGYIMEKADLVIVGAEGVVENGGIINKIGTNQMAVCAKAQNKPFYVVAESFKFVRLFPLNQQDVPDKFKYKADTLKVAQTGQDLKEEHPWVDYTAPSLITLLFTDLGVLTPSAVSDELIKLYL
Method: Metabolites were combined into four defined screening pools. […] To the reverse side, 300 μL of 50 μM per metabolite pool was aliquoted and sealed (metabolite chamber). Loaded dialysis plates were placed in the dark at 4 °C on a rotating shaker (120 rpm) and incubated for 40 h. Post-dialysis, metabolites were isolated from each chamber by cold methanol extraction. Each sample was analyzed in technical triplicate by FIA-MS on a SCIEX X500R QTOF MS with interspersed blanks injections. The input metabolite pools were assayed at the beginning, middle, and end of each MS method batch for QC and normalization.
MIDAS FIA-MS spectra were processed in SCIEX OS 1.6 software to determine metabolite abundances by integrating the mean area under the curve for each extracted ion chromatogram. For each dialysis replicate, log2(fold change) for each metabolite was calculated as the difference between the log2 abundance in the protein chamber and metabolite chamber. For each technical triplicate, up to one outlier was removed using a z-score cutoff of five (<0.1% of observations). The corrected technical replicates were collapsed to one mean fold-change summary per protein-metabolite pair. To remove fold-change variation that was not specific to a given metabolite-protein pair, the first three principal components of the total screening dataset were removed on a per metabolite pool basis by subtracting the projection of the first 3 principal components, creating log2(corrected fold change). Protein-metabolite z-scores were determined by comparing the target protein-metabolite log2(corrected fold change) to a no-signal model for that metabolite using measures of the central tendency (median) and standard deviation (extrapolated from the 25–75% quantiles), which are robust to the signals in the tails of a metabolite’s fold-change distribution. Z-scores were false-discovery rate controlled using Storey’s q-value (qvalue, R) and protein-metabolite interactions with q-values < 0.1 were considered significant.

Row | Compound | log2(corrected fold change)
1 | N[C@H](CCC(=O)O)C(=O)O [D-Glutamic acid] | -0.01634
2 | CC(C)CC(=O)NCC(=O)O [N-Isovalerylglycine] | -0.07333
3 | O=C(O)COP(=O)(O)O [2-Phosphoglycolic acid] | 0.0426
4 | N[C@H](CO)C(=O)O [D-Serine] | -0.04824
5 | N[C@@H](CS(=O)(=O)O)C(=O)O [L-Cysteic acid] | 0.001606
6 | O=C1O[C@H]([C@@H](O)CO)C(O)=C1O [Ascorbate] | 0.01654
7 | O=C(O)[C@@H](O)[C@H](O)[C@H](O)[C@@H](O)C(=O)O [D-galactaric acid] | 0.01388
8 | CC(C(=O)O)C(=O)O [Methylmalonic acid] | -0.05121
9 | O=C(O)CCO [3-Hydroxypropionic acid] | -0.02892
10 | Nc1nc2c(ncn2[C@H]2C[C@H](O)[C@@H](COP(=O)(O)OP(=O)(O)O)O2)c(=O)[nH]1 [2-Deoxyguanosine 5-diphosphate] | -0.09804
11 | CC(C)(CO)[C@@H](O)C(=O)NCCC(=O)O [Pantothenic acid] | 0.0165
12 | NC(=O)c1ccc[n+]([C@@H]2O[C@H](COP(=O)([O-])OP(=O)(O)OC[C@H]3O[C@@H](n4cnc5c(N)ncnc54)[C@H](OP(=O)(O)O)[C@@H]3O)[C@@H](O)[C@H]2O)c1 [NADP] | 0.02005
13 | CCC(C)C(=O)NCC(=O)O (stereo not shown) [a-Methylbutyrylglycine] | -0.07333
14 | O=C(O)C(=O)CO [Hydroxypyruvate] | -0.04906
15 | NCCS [Cysteamine] | 0.01963
16 | O=c1ccn([C@@H]2O[C@H](COP(=O)(O)OP(=O)(O)OP(=O)(O)O)[C@@H](O)[C@H]2O)c(=O)[nH]1 [Uridine 5-triphosphate] | -0.0457
17 | C[C@@H](O)C=O [D-Lactaldehyde] | -0.01671
18 | Nc1ncnc2c1ncn2[C@H]1C[C@H](O)[C@@H](COP(=O)(O)OP(=O)(O)O)O1 [Deoxyadenosine diphosphate] | -0.1103

Row | Compound | log2(corrected fold change)
19 | Cc1ncc(CO)c(C=O)c1O [Pyridoxal] | 0.1009
20 | N[C@@H](CCSC[C@H](N)C(=O)O)C(=O)O [L-Cystathionine] | -0.03443
21 | Nc1nc2c(ncn2[C@@H]2O[C@H](COP(=O)(O)OP(=O)(O)O)[C@@H](O)[C@H]2O)c(=O)[nH]1 [Guanosine 5-diphosphate] | -0.07145
22 | Nc1c(O)cccc1C(=O)O [3-Hydroxyanthranilic acid] | -0.02136
23 | CC(O)(CC(=O)O)CC(=O)SCCNC(=O)CCNC(=O)[C@H](O)C(C)(C)COP(=O)(O)OP(=O)(O)OC[C@H]1O[C@@H](n2cnc3c(N)ncnc32)[C@H](O)[C@@H]1OP(=O)(O)O (stereo partly shown) [3-Hydroxy-3-methylglutaryl coenzyme A] | 0.00866
24 | CCCCCCCCCC(=O)O [Decanoic acid] | 0.004891
25 | N[C@@H](CCCCN[C@@H](CCC(=O)O)C(=O)O)C(=O)O [L-Saccharopine] | -0.0272
26 | O=C(O)CO [Glycolic acid] | -0.06864
27 | CC(O)(CC(=O)O)CC(=O)O [3-Hydroxy-3-methylglutaric acid] | 0.0406
28 | Cc1cc2nc3c(=O)[nH]c(=O)nc-3n(C[C@H](O)[C@H](O)[C@H](O)COP(=O)(O)O)c2cc1C [Riboflavin 5-monophosphate] | 0.06004
29 | Cc1cn([C@H]2C[C@H](O)[C@@H](COP(=O)(O)O)O2)c(=O)[nH]c1=O [Thymidine monophosphate] | -0.007923
30 | O=C(O)CCC(=O)O [Succinic acid] | -0.05121
31 | CC(=O)CC(=O)CCC(=O)O [4,6-Dioxoheptanoic acid] | -0.02657
32 | CC(O)CC(=O)SCCNC(=O)CCNC(=O)[C@H](O)C(C)(C)COP(=O)(O)OP(=O)(O)OC[C@H]1O[C@@H](n2cnc3c(N)ncnc32)[C@H](O)[C@@H]1OP(=O)(O)O (stereo partly shown) [3-Hydroxybutyryl coenzyme A] | 0.00715
33 | Nc1c(O)cccc1C(=O)CC(N)C(=O)O (racemic) [3-Hydroxy-DL-kynurenine] | 0.08675
34 | Cc1ncc(COP(=O)(O)O)c(C=O)c1O [Pyridoxal 5-phosphate] | 0.1983
35 | CC(C)(CO[P@@](=O)(O)O[P@@](=O)(O)OC[C@H]1O[C@@H](n2cnc3c(N)ncnc32)[C@H](O)[C@@H]1OP(=O)(O)O)[C@@H](O)C(=O)NCCC(=O)NCCSC(=O)CC(=O)O [Malonyl coenzyme A] | -0.02331

same assay, conditions: MIDAS screen, sheet eIF2Ba; metabolites screened in pools 1-4; p-value and q-value given

Row | Compound | log2(corrected fold change)
36 | CCC(CO)C(=O)O (stereo not shown) [2-(Hydroxymethyl)butanoic acid] | 0.09429
37 | Nc1ccccc1C(=O)O [Anthranilate] | -0.04243
38 | C[C@@H](CO)C(=O)O [(S)-Hydroxyisobutyrate] | 0.07137
39 | O=CC[C@H](O)[C@H](O)CO [2-Deoxy-D-ribose] | -0.2249
40 | O=C(O)Cc1ccc(O)c(O)c1 [3,4-Dihydroxyphenylacetic acid] | 0.1411
41 | O=C[C@H](O)[C@@H](O)[C@@H](O)[C@H](O)CO [D-Galactose] | -0.09045
42 | COc1cc(CCN)ccc1O [3-Methoxytyramine] | 0.126
43 | Nc1nc2nc[nH]c2c(=O)[nH]1 [Guanine] | 0.2851
44 | COc1cccc(C(=O)O)c1N [2-Amino-3-methoxybenzoic acid] | -0.1539
45 | O=C(O)Cc1ccccc1O [2-Hydroxyphenylacetic acid] | -0.07366
46 | Nc1ccn([C@H]2C[C@H](O)[C@@H](COP(=O)(O)O)O2)c(=O)n1 [2-Deoxy-5-cytidylic acid] | 0.04298
47 | O=C(O)c1cc(=O)[nH]c(=O)[nH]1 [Orotic acid] | 0.07847
48 | N[C@@H](CCC(=O)O)C(=O)O [L-Glutamic acid] | -0.006334
49 | O=C(O)C(=O)CC(O)C(=O)O (stereo not shown) [4-Hydroxy-2-oxoglutaric acid] | -0.1985
50 | NC(=O)c1cccnc1 [Nicotinamide] | -0.1042
51 | NCCS(=O)O [Hypotaurine] | 0.03998
52 | NC(=O)CCC(N)C(=O)O (stereo in doubt) [D-Glutamine] | 0.1976
53 | NC(=O)C[C@H](N)C(=O)O [L-Asparagine] | 0.07649
54 | O=C(O)C(=O)CS(=O)(=O)O [3-Sulfopyruvic acid] | -0.112
55 | O=C(O)C=Cc1c[nH]cn1 [4-Imidazoleacrylic acid] | -0.125
56 | O=C(O)c1cccnc1 [Nicotinic acid] | -0.1307
57 | PIP2 | 0.1728
58 | O=C(O)[C@H]1O[C@H](OP(=O)(O)OP(=O)(O)OC[C@H]2O[C@@H](n3ccc(=O)[nH]c3=O)[C@H](O)[C@@H]2O)[C@H](O)[C@@H](O)[C@@H]1O [UDP-Glucuronate] | -0.09562
59 | NCC(O)CCC(N)C(=O)O (racemic) [DL-5-Hydroxylysine] | -0.09937
60 | CCC(=O)SCCNC(=O)CCNC(=O)[C@H](O)C(C)(C)COP(=O)(O)OP(=O)(O)OC[C@H]1O[C@@H](n2cnc3c(N)ncnc32)[C@H](O)[C@@H]1OP(=O)(O)O [Propionyl coenzyme A] | 0.4521

same assay, conditions: eIF2Bα2; 50 μM per metabolite pool; 40 h dialysis at 4 °C

Row | Compound | MIDAS result (enrichment in the protein chamber / hit status)
61 | N[C@@H](Cc1ccc(O)c(I)c1)C(=O)O [iodotyrosine] | significantly enriched
